Laboratory results as given in patent publication US8372808B2, “Suppression of glial fibrillary acidic protein” (Wisconsin Alumni Research Foundation, priority 2008, dated 2013).
Values joined by “and” are separate entries in the source; they are usually repeats but may differ in a detail not shown here. Identical values can stand only once.

Tests used:
[1] = pilot studies with daily injections of clomipramine (tolerability); format: in vivo, mouse; conditions: daily injections of 40 mg/kg; after 2 weeks
[2] = system: 172.9 cells; test: cell viability (CellTiter-Glo) / MTDcc in 172.9 cells
Method: Criterion for acceptable viability was >70% survival.
Cell viability was determined as follows. After exposure to each compound (duplicate wells per compound), 50 μl of CellTitier-Glo Luminescent Cell Viability Assay reagent (G7571, Promega) was added to the 100 μl of media present in each well, and the luminescent signal (reflecting intracellular ATP level) was detected with either a Victor 3-V plate reader (Perkin Elmer) or GloRunner Microplate Luminometer (Turner Biosystems). Cell viability was expressed as a percent of non-treated control cells.
A dose-response curve was created for each compound (0.1, 0.5, 1, 5, 10, 15, 20 μM) using 48 hr exposures. The MTDcc (“maximum tolerated dose—cell culture”) indicates the highest concentration that retained at least 70% cell viability. Each compound and concentration was analyzed in quadruplicate wells. EGCDG: epigallocatechin 3,5-digallate; NPPB: 5-nitro-2-phenylproplyaminobenzoic acid. As used herein, MTDcc refers to the MTD as determined by this assay under the above conditions.

[3] = system: GFAP protein; test: GFAP protein in brain of Tg172.9 mice (sandwich ELISA); format: in vivo, mouse
Method: Another group of mice were injected with the same volume of vehicle alone (n=15). Brains were bisected sagittally with one half analyzed for GFAP promoter activity using the Dual-Glo assay, and the other half analyzed for GFAP protein using the sandwich ELISA. FIG. 7A is a bar graph showing hGFAP promoter activity of clomipramine-treated mice. The mice show a 26% reduction in hGFAP promoter activity compared to vehicle-treated controls. FIG. 7B is a bar graph showing the GFAP protein levels of clomipramine-treated mice. The mice show a 57% reduction in total GFAP content compared to vehicle-treated controls. Graphs present the mean±SD (* p<0.05, ***p<0.001, unpaired t-test).
At various times after injection, from 0-48 hours, brains were harvested for measurement of GFAP promoter activity using the Dual-Glo luciferase assay, and GFAP protein using a sandwich ELISA.
Injections were given in the afternoon, between 3-5 PM. Controls were transgenic littermates injected with vehicle alone. At the end of the three week course of injections (and one day after the last injection), brains were harvested for analysis of GFAP promoter activity and protein levels as described above.
To achieve significant reductions of GFAP protein in vivo may require chronic treatments, given the slow turnover of this protein. […] Controls were injected with vehicle alone. […]

[4] = sometimes considered in combination with desmethyl-clomipramine; cited from earlier work
[5] = system: GFAP protein; test: sandwich ELISA for GFAP protein in 172.9 cells, quaternary screen; format: cell-based, mouse; conditions: 10 days of exposure, 0-20 μM
Method: Compounds were tested at eight different concentrations ranging from 0-20 μM. In addition, GFAP protein levels were measured using a sandwich ELISA, which has greater sensitivity and is more accurate than the cell-based ELISA used in the primary screens.
The extracts were harvested from each well and the total GFAP content of each well was measured by a sandwich ELISA as described below. Briefly, separate microtiter plates were coated with SMI-26 anti-GFAP mouse monoclonal antibody cocktail (1:1000, Covance, diluted in PBS) overnight at 4° C., rinsed 3 times in PBS, and then blocked with Blotto (5% nonfat milk/PBS) for 2 h at RT. Samples from the astrocyte cell lysate (20 μl per well) were loaded onto the plates and brought up to 100 μl with 0.5% Triton X-100/PBS (a buffer used for subsequent antibody incubations and rinses), and incubated with a rabbit polyclonal anti-GFAP antibody (1:5000, DAKO) overnight at 4° C. The plates were rinsed three times and then incubated with HRP-conjugated goat anti-rabbit IgG (1:30,000, Sigma) for 2 h at RT. After three final rinses, peroxidase activity was detected using the Super Signal Femto maximum Sensitivity Substrate (Pierce) with a GloRunner microplate luminometer (Turner Biosystems). The GFAP content in the samples was determined from a standard curve generated using serial dilutions of purified GFAP (Research Diagnostics).

Structure (SMILES): CN(C)CCCN1c2ccccc2CCc2ccc(Cl)cc21 [clomipramine]
- side effect of daily injections [1]: weight loss
- cell viability ([2]; quaternary screen, 10 days of exposure): acceptable cell viability
- MTDcc ([2]; tertiary screen, 48 hr exposure, 0.1-20 μM, highest concentration that retained at least 70% cell viability): 12.5 µM
- reduction in GFAP protein compared to vehicle-treated controls ([3]; 40 mg/kg IP every other day for 3 weeks): 57% and ~50%
- changes in GFAP protein levels ([3]; acute treatment, single IP injection, 0-48 hours): no changes
- plasma concentration considered therapeutic in humans [4]: 300 to 1750 nM
- reductions in GFAP protein levels [5]: consistent reductions
